In patent US20250049781A1, “PHARMACEUTICAL COMPOSITIONS COMPRISING RPL554 IN HFA-134A FOR ADMINISTRATION BY INHALATION” (VERONA PHARMA PLC, priority 2018, published 2025):
“And” between values parts separate entries of the source, which are not always exact repeats. Identical values can stand only once.

Experiments:
Assay type in all cases: physicochemical
[1] = RPL554 dissolved in HFA-134a/ethanol with or without oleic acid (UV/Visible); conditions: 24 hours at ambient temperature
Procedure: Samples were prepared by adding 1.5 mg of RPL554 to plain 14 mL aluminium canisters, with ethanol, oleic acid and HFA-134a. Excipients were added to the canisters to maintain an ethanol/oleic acid ratio of a 50:1 (see Table 8). Corresponding canisters were also produced containing RPL554, ethanol and HFA-134a only. The canisters were crimped with 63 μL pMDI valves, with shortened dip tubes (FIG. 3), and filled to 11.6 g with HFA-134a through the valve. The length of the dip tubes was sufficient to extend into the liquid propellant/co-solvent phase only (i.e. after the API particles had settled). The samples were placed in an ultrasonic bath for 30 seconds.
All the canisters were left for 24 hours at ambient temperature to settle and to establish dissolution equilibrium. To determine the amount of API dissolved, each canister was fired five times, in an upright position (through a cannula fitted to the valve stem) into a 10.0 cm^3 volumetric flask. The flask was made up to volume with dehydrated ethanol and the solution was analysed using UV/Visible spectroscopy (Perkin Elmer, Model Lambda 35). The concentration of RPL554 was calculated, quantitatively, against a three point standard curve.

[2] = Solubility of RPL554 in ethanol (USP/BP criteria)
Procedure: However, the observations of dissolution and recrystallisation with the lowest product strength (10 μg/actuation) prompted further investigations into the solubility of RPL554 in ethanol in the presence of oleic acid.
The original assessment was carried out using Analytical Reagent grade ethanol. […] Unexpectedly, RPL554 was therefore found to have some solubility in ethanol.

[3] = Sedimentation score of pMDI formulations containing HFA-134a, oleic acid and ethanol; set-up: key: 1 = fastest sedimentation (undesirable), 10 = slowest (acceptable)
Procedure: (§1) Samples were made by adding the required amounts of RPL554 (see Table 3) to 15 ml pressure rated clear glass vials. The propellant, HFA-134a, HFA-227ea or combinations of the two (see Table 4) was added through the valve and the samples were mixed in an ultrasonic bath for 30 seconds. The same target fill weight of 11.6 g (±0.5 g) was used for all samples. The appearance of the API particles in the propellants was assessed with regards to both the sedimentation rate and flocculation behaviour (see FIG. 1). The sedimentation rate of the formulations was visually assessed after suspension agitation by recording images of the glass vials using a high-speed camera. The suspension quality was determined by assigning a sedimentation score of from 1 to 10 based on the amount of active particles which had settled or floated in 30 seconds, with 1being the fastest to sediment/cream (i.e. undesirable) and 10 being the slowest to sediment/cream (i.e. acceptable).
In order to seek to improve the suspension characteristics the inclusion of additional excipients was investigated. In particular, formulations further comprising a surfactant (oleic acid, Ph. Eur./BP) and a co-solvent (ethanol, 100% USP-NF) were prepared.

[4] = Sedimentation score of RPL554 suspensions in HFA-134a, HFA-227ea and mixtures (visual, glass vials); set-up: key to Sedimentation score: 1 = fastest sediment/cream (undesirable), 10 = slowest (acceptable)
Procedure: as §1

With `COc1cc2c(cc1OC)-c1c/c(=N\c3c(C)cc(C)cc3C)n(CCNC(N)=O)c(=O)n1CC2` [RPL554, 9,10-dimethoxy-2-(2,4,6-trimethylphenylimino)-3-(N-carbamoyl-2-aminoethyl)-3,4,6,7-tetrahydro-2H-pyrimido[6,1-a]isoquinolin-4-one] the “Amount of dissolved RPL554 versus ethanol concentration” value ([1]; HFA-134a with 1-12% w/w ethanol) was “increased with increasing ethanol concentration”, the “Effect of oleic acid on the solubility of RPL554” value ([1]; HFA-134a/ethanol, ethanol/oleic acid ratio 50:1) was “no effect” and the “Solubility classification according to the USP/BP criteria” value ([2]; Analytical Reagent grade ethanol, previous (original) assessment) was “practically insoluble”. For the same molecule, the “Solubility classification according to the USP/BP criteria” value ([2]; dehydrated alcohol (100% USP-NF ethanol), reassessment) was “very slightly soluble”, the Sedimentation score ([3]; 10 μg/actuation, ethanol 1% w/w, oleic acid 0.010% w/w) was 6 and the Sedimentation score ([3]; 10 μg/actuation, ethanol 1% w/w, oleic acid 0.500% w/w) was 1. It also gave a Sedimentation score ([3]; 10 μg/actuation, ethanol 5% w/w, oleic acid 0.255% w/w) of 6, a Sedimentation score ([3]; 10 μg/actuation, ethanol 15% w/w, oleic acid 0.010% w/w) of 6 and a Sedimentation score ([3]; 10 μg/actuation, ethanol 15% w/w, oleic acid 0.500% w/w) of 6. For the same molecule, the Sedimentation score ([3]; 150 μg/actuation, ethanol 1% w/w, oleic acid 0.255% w/w) was 2, the Sedimentation score ([3]; 150 μg/actuation, ethanol 5% w/w, oleic acid 0.010% w/w) was 4 and the Sedimentation score ([3]; 150 μg/actuation, ethanol 5% w/w, oleic acid 0.255% w/w (six replicate samples)) was 5 (5×) and 4. It also gave a Sedimentation score ([3]; 150 μg/actuation, ethanol 5% w/w, oleic acid 0.500% w/w) of 4, a Sedimentation score ([3]; 150 μg/actuation, ethanol 15% w/w, oleic acid 0.255% w/w) of 8 and a Sedimentation score ([3]; 1000 μg/actuation, ethanol 1% w/w, oleic acid 0.010% w/w) of 3. The Sedimentation score ([3]; 1000 μg/actuation, ethanol 1% w/w, oleic acid 0.500% w/w) was 2, the Sedimentation score ([3]; 1000 μg/actuation, ethanol 5% w/w, oleic acid 0.255% w/w) was 3 and the Sedimentation score ([3]; 1000 μg/actuation, ethanol 15% w/w, oleic acid 0.010% w/w) was 4. The Sedimentation score ([3]; 1000 μg/actuation, ethanol 15% w/w, oleic acid 0.500% w/w) was 5, the Sedimentation score ([4]; 10 μg/actuation, HFA-134a 0% w/w, HFA-227ea 100% w/w) was 3 and the Sedimentation score ([4]; 10 μg/actuation, HFA-134a 25% w/w, HFA-227ea 75% w/w) was 5. The Sedimentation score ([4]; 10 μg/actuation, HFA-134a 50% w/w, HFA-227ea 50% w/w) was 4, the Sedimentation score ([4]; 10 μg/actuation, HFA-134a 75% w/w, HFA-227ea 25% w/w) was 6 and the Sedimentation score ([4]; 10 μg/actuation, HFA-134a 100% w/w, HFA-227ea 0% w/w, scale 1-10, 10 slowest) was 6. It also gave a Sedimentation score ([4]; 50 μg/actuation, HFA-134a 0% w/w, HFA-227ea 100% w/w) of 3, a Sedimentation score ([4]; 50 μg/actuation, HFA-134a 25% w/w, HFA-227ea 75% w/w) of 4 and a Sedimentation score ([4]; 50 μg/actuation, HFA-134a 50% w/w, HFA-227ea 50% w/w) of 3. The Sedimentation score ([4]; 50 μg/actuation, HFA-134a 75% w/w, HFA-227ea 25% w/w) was 6, the Sedimentation score ([4]; 50 μg/actuation, HFA-134a 100% w/w, HFA-227ea 0% w/w) was 6 and the Sedimentation score ([4]; 150 μg/actuation, HFA-134a 0% w/w, HFA-227ea 100% w/w) was 3. The Sedimentation score ([4]; 150 μg/actuation, HFA-134a 25% w/w, HFA-227ea 75% w/w) was 4, the Sedimentation score ([4]; 150 μg/actuation, HFA-134a 50% w/w, HFA-227ea 50% w/w) was 3 and the Sedimentation score ([4]; 150 μg/actuation, HFA-134a 75% w/w, HFA-227ea 25% w/w) was 3. The Sedimentation score ([4]; 150 μg/actuation, HFA-134a 100% w/w, HFA-227ea 0% w/w) was 5, the Sedimentation score ([4]; 500 μg/actuation, HFA-134a 0% w/w, HFA-227ea 100% w/w) was 2 and the Sedimentation score ([4]; 500 μg/actuation, HFA-134a 25% w/w, HFA-227ea 75% w/w) was 3. The Sedimentation score ([4]; 500 μg/actuation, HFA-134a 50% w/w, HFA-227ea 50% w/w) was 2, the Sedimentation score ([4]; 500 μg/actuation, HFA-134a 75% w/w, HFA-227ea 25% w/w) was 3 and the Sedimentation score ([4]; 500 μg/actuation, HFA-134a 100% w/w, HFA-227ea 0% w/w) was 3. The Sedimentation score ([4]; 1000 μg/actuation, HFA-134a 0% w/w, HFA-227ea 100% w/w) was 2, the Sedimentation score ([4]; 1000 μg/actuation, HFA-134a 25% w/w, HFA-227ea 75% w/w) was 4 and the Sedimentation score ([4]; 1000 μg/actuation, HFA-134a 50% w/w, HFA-227ea 50% w/w) was 3. For the same molecule, the Sedimentation score ([4]; 1000 μg/actuation, HFA-134a 75% w/w, HFA-227ea 25% w/w) was 4, the Sedimentation score ([4]; 1000 μg/actuation, HFA-134a 100% w/w, HFA-227ea 0% w/w) was 4 and the “Suspension behaviour on and after shaking” value (shortened to “Suspension behaviour”) ([4]; formulation in HFA-134a) was “readily suspended on shaking, with rapid flocculation and gradual sedimentation observed after shaking was stopped”. The “Suspension behaviour” value ([4]; formulation in HFA-227ea) was “creaming was observed after the cessation of shaking” and the “Suspension behaviour” value ([4]; formulation in blend of HFA-134a/HFA-227ea (50/50)) was “creaming was observed after the cessation of shaking”.
